Experimental data from EP4810508A1, “ARABINOSE DERIVATIVE COMPOUND, AND COMPOSITION COMPRISING SAME FOR PREVENTING OR TREATING DEGENERATIVE BRAIN DISEASES” (Digmbio. Inc., priority 2023, dated 2025).
Where two headings read alike, the source gives them in different places.

System: HRE/Luc/HEK293 cells
Assay: HRE (Hypoxia Response Element) luciferase assay
Type: cell-based, human
Conditions: for HRE assay: increase in HRE expression levels by the test substance relative to the vehicle in HRE/Luc/HEK293 cells; for fold induction at 10 µM / fold induction at 100 µM: Homo sapiens
Experimental: • (a) HRE assay: Confirmation of increased in HRE expression levels by the test substance relative to the vehicle in HRE/Luc/HEK293 cells • * Less than a twofold increase at 100 µM, • ** More than a twofold increase at 100 µM, • *** More than a twofold increase at 10 µM, • **** More than a twofold increase at 1 µM, • Not performed.
It has been reported that in the brains of AD patients, blood supply is mostly insufficient, resulting in oxygen levels being up to 50% lower than those of normal individuals, leading to increased oxidative stress (ROS) and neuroinflammation. It has also been studied that when the HIF-1α (hypoxia inducible factor-1) factor binds to the HRE (hypoxia response element), it increases VEGF (vascular endothelial growth factor), which promotes the formation of new blood vessels, thereby increasing oxygen levels in the brain and helping to inhibit nerve cell damage.
A reporter gene containing luciferase, capable of verifying the level of HRE expression, was inserted into HEK-293 human embryonic kidney cells, and HRE/Luc/HEK293 cells were constructed by inserting a plasmid (HRE/Luc) with luciferase attached downstream of the HRE promoter that binds to HIF-1α using lipofectamine (Invitrogen).
To perform HRE luciferase analysis, HRE/Luc/HEK293 cells were seeded in 96-well culture plates at a cell density of 4 x 10^4 per well in minimal essential medium (MEM) containing 10% fetal bovine serum. After one day, the cell medium was removed and replaced with medium mixed with various concentrations of example compounds. Six hours after compound pretreatment, HRE/Luc/HEK293 cells were cultured under hypoxic conditions (O2 0.1%) for 18 hours. Subsequently, the cells were washed with phosphate buffer, lysed with lysis buffer, and then the luciferase reagent (Promega) for luciferase analysis was added. Afterward, changes in HRE expression levels associated with HIF-1 signaling were evaluated by measuring luminescence using an Infinite200 (Tecan).

[1] = HEK293, 18 h, 10uM, Table 2 (Examples 75-109, 114), read-out: HRE-inceasing 10uM
[2] = HEK293, 18 h, 100uM, Table 2 (Examples 75-109, 114), read-out: HRE-inceasing 100uM
[3] = HEK293, 10uM, fold increase of HRE expression, hypoxic conditions (O2 0.1%) 18 hours, Table 2, read-out: HRE-increasing 10uM
[4] = HEK293, 100uM, fold increase of HRE expression, hypoxic conditions (O2 0.1%) 18 hours, Table 2, read-out: HRE-increasing 100uM
[5] = HEK293, 18 h, 10uM, Table 2 (Examples 37-74, 52), read-out: HKt-increasing 10uM
[6] = HEK293, 18 h, 100uM, Table 2 (Examples 37-74, 52), read-out: HKt-increasing 100uM

O[C@@H]1[C@@H](O)[C@@H](Oc2ccc(Cc3ccc(OC(F)(F)F)cc3)cc2)OC[C@@H]1O [Example 10] was tested, and the “HRE-increasing 10uM” value (10uM, fold increase of HRE expression, hypoxic conditions (O2 0.1%) 18 hours, Table 2) was 1, the “HRE-increasing 100uM” value (100uM, fold increase of HRE expression, hypoxic conditions (O2 0.1%) 18 hours, Table 2) was under 1 and the HRE assay was “•”.
For CC(C)c1cccc2nc(-c3cccc(O[C@@H]4OC[C@H](O)[C@H](O)[C@H]4O)c3)oc12 [Example 98, (2S,3R,4S,5S)-2-(3-(7-isopropylbenzo[d]oxazol-2-yl)phenoxy)tetrahydro-2H-pyran-3,4,5-triol], the fold induction at 10 µM [1] was 1.1 and the fold induction at 100 µM [2] was 1.4.
With CCc1ccc2c(-c3ccc(O[C@H]4OC[C@H](O)[C@H](O)[C@H]4O)cc3)coc2c1 [Example 95, (2R,3R,4S,5S)-2-(4-(6-ethylbenzofuran-3-yl)phenoxy) tetrahydro-2H-pyra-3,4,5-triol] the fold induction at 10 µM [1] was 2.6 and the fold induction at 100 µM [2] was 3.1.
Cc1ccc2oc(-c3ccc(O[C@@H]4OC[C@H](O)[C@H](O)[C@H]4O)c(F)c3)nc2c1 [Example 104, (2S,3R,4S,5S)-2-(2-fluoro-4-(5-methylbenzo[d]oxazol-2-yl)phenoxy)tetrahydro-2H-pyran-3,4,5-triol] was tested, and the fold induction at 10 µM [1] was 3.6, the fold induction at 100 µM [2] was 2 and the HRE expression (low concentration of 1 µM) was “more than threefold”.
In the case of COc1ccc(Cc2ccc(O[C@H]3OC[C@H](O)[C@H](O)[C@H]3O)cc2)cc1OC [Example 17, (2R,3R,4S,5S)-2-(4-(3,4-dimethoxybenzyl)phenoxy)tetrahydro-2H-pyran-3,4-triol], the fold induction at 10 µM [3] is reported as 1.2 and the fold induction at 100 µM [4] is reported as 1.5.
COc1ccc(Cc2ccc(O[C@H]3OC[C@H](O)[C@H](O)[C@H]3O)cc2)c(Cl)c1 [Example 49, (2R,3R,4S,5S)-2-(4-(2-chloro-4-methoxybenzyl)phenoxy)tetrahydro-2H-pyran-3,4,5-triol] gave a fold induction at 10 µM [5] of 1 and a fold induction at 100 µM [6] of 1.1.
CSc1ccc(Cc2ccc(O[C@H]3OC[C@H](O)[C@H](O)[C@H]3O)cc2)cc1 [Example 11, (2R,3R,4S,5S)-2-(4-(4-(methylthio)benzyl)phenoxy)tetrahydro-2H-pyran-3,4,5-triol] was tested, and the fold induction at 10 µM [3] was 2.4, the fold induction at 100 µM [4] was 2.4 and the HRE assay was “•••”.
Molecule COc1ccc2c(ccn2-c2ccc(O[C@H]3OC[C@H](O)[C@H](O)[C@H]3O)cc2)c1 [Example 82, (2R,3R,4S,5S)-2-(4-(5-methoxy-1H-indol-1-yl)phenoxy)tetrahydro-2H-pyran-3,4,5-triol] has a fold induction at 10 µM [1] of 1.4 and a fold induction at 100 µM [2] of 2.3.
O[C@@H]1[C@@H](O)[C@H](Oc2ccc(CN3CCOCC3)cc2)OC[C@@H]1O [Example 76, (2S,3R,4S,5S)-2-(4-(morpholinomethyl)phenoxy)tetrahydro-2H-pyran-3,4,5-triol] was tested, and the fold induction at 10 µM [1] was under 1 and the fold induction at 100 µM [2] was 1.
CO[C@H]1[C@@H](Oc2ccc(Oc3ccc(C(C)C)cc3)cc2)OC[C@H](O)[C@@H]1O [Example 62, (3S,4S,5R,6R)-6-(4-(4-isopropylphenoxy)phenoxy)-5-methoxytetrahydro-2H-pyran 3,4-diol] was tested, and the fold induction at 10 µM [5] was 2.3 and the fold induction at 100 µM [6] was 2.2.
With CC(C)c1ccc2nc(-c3ccc(O[C@H]4OC[C@H](O)[C@H](O)[C@H]4O)cc3)oc2c1 [Example 88, (2R,3R,4S,5S)-2-(4-(6-isopropylbenzo[d]oxazol-2-yl)phenoxy)tetrahydro-2H-pyran-3,4,5-triol] the fold induction at 10 µM [1] was 1.7 and the fold induction at 100 µM [2] was 3.1.
CC(C)c1ccc(Oc2ccc(O[C@H]3O[C@H](CO)[C@H](O)[C@H](O)[C@H]3O)cc2)cc1 [Example 59, (2R,3R,4S,5R,6R)-2-(hydroxymethyl)-6-(4-(4-isopropylphenoxy)phenoxy)tetrahydro-2H-pyran-3,4,5-triol] was tested, and the fold induction at 10 µM [5] was 1.8 and the fold induction at 100 µM [6] was 2.8.
Molecule O[C@@H]1[C@@H](O)[C@@H](Oc2ccc(Cc3ccc(OC4CCCC4)cc3)cc2)OC[C@@H]1O [Example 45, (2R,3R,4S,5S)-2-(4-(4-(cyclopentyloxy)benzyl)phenoxy)tetrahydro-2H-pyran-3,4,5-triol] has a fold induction at 10 µM [5] of 1.1 and a fold induction at 100 µM [6] of 1.3.
For N#Cc1ccc(C(=O)c2ccc(O[C@@H]3OC[C@H](O)[C@H](O)[C@H]3O)cc2)cc1 [Example 72, 4-(4-(((2S,3R,4S,5S)-3,4,5-trihydroxytetrahydro-2H-pyran-2-yl)oxy)benzoyl)benzonitrile], the fold induction at 10 µM [5] was 1 and the fold induction at 100 µM [6] was 1.3.
With O=C(c1ccc(O[C@@H]2OC[C@H](O)[C@H](O)[C@H]2O)cc1)c1ccco1 [Example 114, furan-2-yl (4-(((2S,3R,4S,5S)-3,4,5-trihydroxytetrahydro-2H-pyran-2-yl)oxy)phenyl)methanone] the fold induction at 10 µM [1] was 1.1 and the fold induction at 100 µM [2] was 1.3.
Molecule CO[C@@H]1[C@@H](O)[C@@H](Oc2ccc(Oc3ccc(C(C)C)cc3)cc2)OC[C@@H]1O [Example 60, (2R,3R,4S,5S)-2-(4-(4-isopropylphenoxy)phenoxy)-4-methoxytetrahydro-2H-pyran-3,5-diol] has a fold induction at 10 µM [5] of 2.3 and a fold induction at 100 µM [6] of 1.6.
O=C(c1ccc(O[C@H]2OC[C@H](O)[C@H](O)[C@H]2O)cc1)c1ccco1 [Example 115, furan-2-yl(4-(((2R,3R,4S,5S)-3,4,5-trihydroxytetrahydro-2H-pyran-2-yl)oxy)phenyl)methanone] showed a fold induction at 10 µM [3] of 1 and a fold induction at 100 µM [4] of 1.4.
With COc1ccc(Oc2ccc(O[C@H]3OC[C@H](O)[C@H](O)[C@H]3O)cc2)cc1 [Example 55, (2R,3R,4S,5S)-2-(4-(4-methoxyphenoxy)phenoxy)tetrahydro-2H-pyran-3,4,5-triol] the fold induction at 10 µM [5] was 1.8 and the fold induction at 100 µM [6] was 2.9.
With CC(C)Oc1ccc(Cc2ccc(O[C@H]3OC[C@H](O)[C@H](O)[C@H]3O)cc2)cc1 [Example 44] the fold induction at 10 µM [5] was 1.1 and the fold induction at 100 µM [6] was 1.3.
In the case of CC(C)c1ccc(Cc2ccc(O[C@H]3OC[C@H](O)[C@H](O)[C@H]3O)cc2F)cc1 [Example 48, (2R,3R,4S,5S)-2-(3-fluoro-4-(4-isopropylbenzyl)phenoxy)tetrahydro-2H-pyran-3,4,5-triol], the fold induction at 10 µM [5] is reported as 1.3 and the fold induction at 100 µM [6] is reported as 2.3.
Cc1ccc2oc(-c3ccc(O[C@H]4OC[C@H](O)[C@H](O)[C@H]4O)c(F)c3)nc2c1 [Example 105, (2R,3R,4S,5S)-2-(2-fluoro-4-(5-methylbenzo[d]oxazol-2-yl)phenoxy)tetrahydro-2H-pyran 3,4,5-triol] gave a fold induction at 10 µM [1] of 2.5 and a fold induction at 100 µM [2] of 3.7.
Work on O[C@@H]1[C@@H](O)[C@@H](O)CO[C@@H]1Sc1ccc(Cc2ccccc2)cc1 [Example 26, (2R,3R,4S,5S)-2-((4-benzylphenyl)thio)tetrahydro-2H-pyran-3,4,5-thiol] yielded a fold induction at 10 µM [3] of 2.1 and a fold induction at 100 µM [4] of 2.5.
For COc1ccc(Cc2ccc(O[C@H]3OC[C@@H](O)[C@H](O)[C@H]3O)cc2)cc1 [Example 42, (2R,3R,4S,5R)-2-(4-(4-methoxybenzyl)phenoxy) tetrahydro-2H-pyran-3,4,5-triol], the fold induction at 10 µM [5] was 2.4 and the fold induction at 100 µM [6] was 3.1.
COc1ccc(Cc2ccc(O[C@H]3OC[C@H](O)[C@H](O)[C@H]3O)c(F)c2)cc1 [Example 46, (2R,3R,4S,5S)-2-(2-fluoro-4-(4-methoxybenzyl)phenoxy)tetrahydro-2H-pyran-3,4,5-triol] showed a fold induction at 10 µM [5] of 1.1 and a fold induction at 100 µM [6] of 1.8.
For CC(C)c1ccc(-c2ccc(O[C@@H]3OC[C@H](O)[C@H](O)[C@H]3O)cc2)cc1 [Example 87, (2S,3R,4S,5S)-2-((4'-isopropyl-[1,1'-biphenyl]-4-yl)oxy)tetrahydro-2H-pyran-3,4,5-triol], the fold induction at 10 µM [1] was 2.4 and the fold induction at 100 µM [2] was 3.1.
With O[C@@H]1[C@@H](O)[C@@H](Oc2ccc(CC3CCCC3)cc2)OC[C@@H]1O [Example 21, (2R,3R,4S,5S)-2-(4-(cyclopentylmethyl)phenoxy)tetrahydro-2H-pyran-3,4,5-triol] the fold induction at 10 µM [3] was 2.3 and the fold induction at 100 µM [4] was 2.4.
COc1ccc2oc(-c3ccc(O[C@H]4OC[C@H](O)[C@H](O)[C@H]4O)cc3)nc2c1 [Example 91, (2R,3R,4S,5S)-2-(4-(5-methoxybenzo[d]oxazol-2-yl)phenoxy)tetrahydro-2H-pyran-3,4,5-triol] showed a fold induction at 10 µM [1] of 2.4 and a fold induction at 100 µM [2] of 2.8.
